# Measurements published in patent US7312240B2, “Conformationally constrained paclitaxel analogs and their use as anticancer and anti-Alzheimers agents” (Virginia Tech Intellectual Properties, Inc., priority 2004, dated 2007).
# What was measured:
# [1] = test system: Taxol binding site on crosslinked microtubules (polymerized tubulin); assay: Competition binding with fluorescent Taxol N-AB-PT; details: 10 μM Taxol or Taxoid, 5 μM N-AB-PT, 5 μM crosslinked microtubules
# Method: Competition Binding Experiments. The relative affinities of Taxol and derivatives for polymerized tubulin were assessed by competition assays. Crosslinked microtubules were prepared in glycerol assembly buffer (10 mM phosphate, 1 mM EGTA, 0.1 mM GTP 3.4 M glycerol, pH 6.9) as described by Andreu and Barasoain. Prior to use, the crosslinked microtubules were dialyzed against PME buffer for 16-18 hr. Crosslinked microtubules (5 μM) and the fluorescent Taxol derivative N-AB-PT (15, 5 μM) in PME buffer were incubated for 20 min at room temperature with 10 μM of Taxol or the Taxoid. The fluorescence emission intensity at 412 nm of each sample was recorded using a Jobin-Yvon Horiba Fluoromax-3 spectrofluorometer in a 2 mm×10 mm quartz cell (1ex=320 nm) and compared to the emission intensity of the system in the absence of competitor.
# For the fall competition experiment, microtubules, N-AB-PT and varying concentrations of Taxol or 13b (0-30 μM) were treated in the same manner and their emission intensities were measured. The full competition experiment was repeated using pure tubulin assembled by N-AB-PT and identical results were obtained (data not shown).
# GDP-tubulin = assay: Critical concentration determination of tubulin assembly; format: biochemical; details: Taxoid concentration 10 μM; 37° C., PME buffer, 4% DMSO
# Method: Critical Concentration Determination. The critical concentration of tubulin in the presence of 10 μM Taxol or Taxol analog was determined from assembly experiments performed at 37° C. with GDP-tubulin in PME buffer (100 mM PIPES, 2 mM MgSO4, 1 mM EGTA, pH=6.90) containing 4% DMSO. The extent of assembly was measured at different tubulin concentrations (0.5-6 μM) by light scattering (apparent absorption at 350 nm). Critical concentrations were calculated from the x-intercepts of plots of apparent A350 nm VS. tubulin concentration.
# [2] = test system: A2780 ovarian cancer cell line; assay: Cytotoxicity against A2780 ovarian cancer cell line; details: for IC50(cp)/IC50(tx) A2780: ratio of compound IC50 to Taxol IC50, A2780; for times more potent/active than PTX against A2780: A2780, relative to PTX
# purified tubulin = details: read-out: ED50, Tb polymerization; Tubulin concentration 5 μM
# PC-3 prostate cell line = assay: Cytotoxicity against PC3 prostate cancer cell line; details: for IC50(cp)/IC50(tx) PC3: ratio of compound IC50 to Taxol IC50, PC3
# [3] = test system: paclitaxel resistant and epothilone A resistant cell lines; assay: Activity against paclitaxel resistant and epothilone A resistant cell lines; format: cell-based
# [4] = test system: A2780 ovarian cancer cell line; details: meta-bridged analogs, earlier work (Org. Lett. 2001, 3, 2461); cited from earlier work
SMILES,Inhibit binding F-Taxol [1],Critical Tb conc. (GDP-tubulin),"cytotoxicity against A2780 in words, compared with PTX/Taxol or related analogs [2]",IC50(cp)/IC50(tx) A2780 [2],EC50 (purified tubulin),"cytotoxicity against PC3 in words, compared with PTX/Taxol (PC-3 prostate cell line)",IC50(cp)/IC50(tx) PC3 (PC-3 prostate cell line),times better activity than paclitaxel [3],times more potent/active than PTX against A2780 [2],"potency as cytotoxins, fold less than Taxol/PTX [4]"
CC(=O)OC1C(=O)C2(C)C(O)CC3OCC34OC(=O)CCCc3ccccc3C(NC(=O)c3ccccc3)C(O)C(=O)OC3CC(O)(C(OC(=O)c5ccccc5)C42)C(C)(C)C1=C3C (stereo not drawn) [Compound 14a],79%,0.35 ± 0.06 µM,more potent than Taxol,0.08,210 ± 90 nM,more potent than Taxol,0.67,,,
CC(=O)OC1C(=O)C2(C)C(O)CC3OCC34OC(=O)CCCOc3ccccc3C(NC(=O)c3ccccc3)C(O)C(=O)OC3CC(O)(C(OC(=O)c5ccccc5)C42)C(C)(C)C1=C3C (stereo not drawn) [Compound 14b],7%,1.3 ± 0.33 µM,slightly less potent,1.2,830 ± 190 nM,slightly less potent,3.3,,,
CC(=O)O[C@H]1C(=O)[C@@]2(C)[C@@H]3[C@H](OC(=O)c4ccccc4)[C@]4(O)C[C@H](OC(=O)[C@H](O)[C@@H](NC(=O)c5ccccc5)c5ccccc5C/C=C\C(=O)O[C@]35CO[C@@H]5C[C@@H]2O)C(C)=C1C4(C)C [Compound 15d],,,,,,slightly more cytotoxicity than PTX,,100 times,at least 20 times,
CC(=O)O[C@H]1C(=O)[C@@]2(C)[C@@H]3[C@H](OC(=O)c4ccccc4)[C@]4(O)C[C@H](OC(=O)C(O)C(NC(=O)c5ccccc5)c5cccc(c5)OC/C=C\CCC(=O)O[C@]35CO[C@@H]5C[C@@H]2O)C(C)=C1C4(C)C (stereo partly drawn) [Compound 16],,,,,,,,,,less than one-tenth the activity of Taxol
CC(=O)O[C@H]1C(=O)[C@@]2(C)[C@@H]3[C@H](OC(=O)c4ccccc4)[C@]4(O)C[C@H](OC(=O)[C@H](O)[C@@H](NC(=O)c5ccccc5)c5ccccc5CCCC(=O)O[C@]35CO[C@@H]5C[C@@H]2O)C(C)=C1C4(C)C [Compound 16d],,,,,,slightly more cytotoxicity than PTX,,100 times,about 10 times,
